pEC50, pIC50: −log10 of the molar value. Read-outs that look alike come from different tables or passages of the source. Blank lines part the entries; values can stand above or below the molecule they belong to.
Columns and labels:
THP-1 cells [1] = test: THP-1 repression of TNFα/IFNγ-induced MCP-1, IL-6, IL-8 release; assay type: cell-based, human; conditions: for pIC50: Homo sapiens, THP-1, TNFα (60 ng/ml)/IFNγ (40 ng/ml); for Max. eff., IL-6 repression / Max. eff., IL-8 repression / Max. eff., MCP-1 repression: THP-1, I/T, prednisolone = 100%
Protocol: (§1) After 6 hours total RNA was isolated and further processed for microarray hybridization as described for the HepG2 cells. The data from all microarray experiments have been deposited in the NCBI Gene Expression Omnibus (GEO) under accession number (identifier will be included in proof). […] Expression of FKBP51, MCP-1, IL-6 and IL-8 protein was measured by specific […]; #A[…] [MCP-1], #A[…] [IL-6] and #A[…] [IL-8]) according to the manufacturer manual. […] Expression of FKBP51, DUSP1 and GILZ was measured by Q-PCR according to the same procedure as described for the HepG2 cells. In this case the following primer-pairs were used: for GAPDH: [NT] and [NT]; for FKBP51: [NT] and [NT]; for DUSP1: [NT] and [NT]; for GILZ: [NT] and [NT]. For the evaluation of protein expression, cells were incubated overnight with a whole dose range of compounds. Supernatants were collected to determine cytokine levels and cell lysates were generated by repeated freeze-thaw cycles to measure expression of FKBP51 protein. Expression of FKBP51, MCP-1, IL-6 and IL-8 was measured by specific […]; #A[…] [MCP-1], #A[…] [IL-6] and #A[…] [IL-8]) according to the manufacturer manual. […] Samples were incubated for 60 min at 23 C. […] Plates were measured using an EnVision-Alpha Reader.

THP-1 cells [2] = test: THP-1 induction of FKBP51, GILZ, DUSP1; assay type: cell-based, human; conditions: for pEC50: Homo sapiens, THP-1, no stimulus; for Max. eff., DUSP1 induction / Max. eff., FKBP51 induction / Max. eff., GILZ induction: THP-1, prednisolone = 100%
Protocol: as §1, with “THP-1 cells were incubated with glucocorticoid in the presence of either DMSO (control) or IFNγ/TNFα (220 ng/ml/375 ng/ml). After” for “After”

[3] = tested on: primary human whole blood cells; test: Human whole blood LPS-induced cytokine release; assay type: cell-based; conditions: for pIC50: Whole blood cell, LPS, 24 hours, read-out: IC50, LPS-induced TNFα release; for Max. eff., LPS-induced TNFα repression: prednisolone = 100%
Description: Hereafter, supernatant was carefully collected and tested at the most optimal dilution (predetermined by a titration study on control samples) in a human TNFα-specific ELISA (for the LPS stimulated samples) or in a human IL-5-specific or human G-CSF-specific ELISA (for the PMA/anti-CD28 stimulated samples) (Duoset, R&D systems USA).

[4] = tested on: human neonatal foreskin fibroblasts; test: BioMAP assay HDF3CGF; assay type: cell-based; conditions: 1 μM, prednisolone = 100%
Protocol: Next, effects of Org 214007-0 on the cytokine release by primary human whole blood cells treated with either LPS or anti-CD28/PMA were tested. […] These assays make use of different types of primary human cells, in this case coronary artery smooth muscle cells and neonatal foreskin fibroblasts, in an inflammatory environment, [28]. […] When all repressed and induced proteins are taken into account, a relative TI value for Org 214007-0 could be deduced of 1.7 in coronary artery smooth muscle cells and of 2.2 in neonatal foreskin fiboblasts.

Pharmacokinetics in mice = assay type: in vivo, mouse; conditions: for half-life: read-out: T1/2 eli (converted); for C0: extrapolated to T=0, read-out: Cmax; for Tmax: female Balb/c mice
Protocol: For each time-point 3 female Balb/c mice are used. Tmax = Time of maximum observed concentration (in case of i.v. administration Tmax = 0 h); time is expressed in hours (h). Cmax = concentration corresponding to Tmax and expressed in nmol/ml, for i.v. dosing Cmax is extrapolated to T=0. T 1/2 eli(mination) (terminal half-life) = ln(2)/λz expressed in h(ours). AUClast = Area under the curve from the time of dosing (Dosing-time) to the last measurable concentration. AUCinf = predicted Area Under the Curve from the time of dosing extrapolated to infinity and expressed in “h*nmol/ml”. Vz = Volume of distribution based on the terminal phase = Dose / λz* AUCinf and expressed inL/kg. Cl = total body clearance = Dose / AUCinf and expressed in L/h/kg. MRTinf = mean residence time (MRT) extrapolated to infinity for non-infusion models, expressed in h. Vss = gives an estimate of the volume of distribution at steady-state and is expressed in L/kg. […] The bioavailability is expressed in %. i.v. = intraveneously, p.o. = per oral

[5] = tested on: murine collagen-induced arthritis (CIA) model; conditions: for disease score (arthritis score): oral, once daily 3 weeks, therapeutic
Protocol: At day 0 mice were immunized at the base of the tail with 100 μg bovine type II collagen (UMC Nijmegen, The Netherlands) in Complete Freund's Adjuvant (CFA, Difco) enriched with 2 mg/ml Mycobacterium tuberculosis H37RA (Difco). At day 21 mice were boosted by an i.p. injection of 100 μg bovine type II collagen dissolved in saline. After disease onset, mice with an arthritis score ranging from 0.25 to 1.25 were divided into matched groups (n = 12). […] The clinical severity of arthritis (arthritis score) was graded and scored as described [51]. To assess the effects of treatments, the area under the curve (AUC) of arthritis score (subtracting baseline AUC of arthritis score on day 0) was used. One day after the final treatment animals were sacrificed and the knee and ankle joints were imaged using a Faxitron X-ray, Modl MX-20 digital imaging system and analysed using Specimen (Version 2.0.1). The bone destruction was scored on a scale of 0–5 as described previously [51]. The cumulative scores of 2 joints (right ankle and knee) were used as radiological scores. From H&H-stained sections, articular cartilage destruction and inflammatory infiltrate in the right knee joint were scored on a scale of 0–3. The whole study was carried out in a blinded fashion. Statistical analysis was performed using one-way ANOVA.

[6] = read-out: EC50, DUSP1 induction
[7] = read-out: EC50, FKBP51 induction
[8] = female, Balb/c, mouse, in vivo, iv, 4 umol/kg, 4 μmol/kg i.v.
[9] = female, Balb/c, mouse, in vivo, po, 10 umol/kg, 10 μmol/kg p.o.
[10] = female, Balb/c, mouse, in vivo, iv, 10 umol/kg, 10 μmol/kg i.v.
[11] = female, Balb/c, mouse, in vivo, po, 20 umol/kg, 20 μmol/kg p.o.

pIC50 (THP-1 cells [1]; read-out: IC50, IL-6 release): 8.03 | pIC50 (THP-1 cells [1]; read-out: IC50, IL-8 release): 7.96 | pIC50 (THP-1 cells [1]; read-out: IC50, MCP-1 release): 7.63 | pEC50 (THP-1 cells [2]; [6]): 8.19 | pEC50 (THP-1 cells [2]; [7]): 8.10 | pEC50 (THP-1 cells [2]; read-out: EC50, GILZ induction): 7.86 | pIC50 [3]: 7.30 | Cl (Pharmacokinetics in mice; 10 μmol/kg p.o.): 0.4 L/h/kg | Vz (Pharmacokinetics in mice; 10 μmol/kg p.o.): 3.2 L/kg | AUC(0-inf) (Pharmacokinetics in mice; [8]): 10.8 µM·h | AUC(0-t) (Pharmacokinetics in mice; [8]): 10.1 µM·h | MRT inf (Pharmacokinetics in mice; [8]): 7.9 h | clearance (Pharmacokinetics in mice; [8]): 6.67 mL/min/kg | half-life (Pharmacokinetics in mice; [8]): 384 min | Vd (Pharmacokinetics in mice; female, Balb/c, mouse, in vivo, iv, 4 umol/kg, 4 μmol/kg i.v., read-out: Vss): 2.9 L/kg | Vd (Pharmacokinetics in mice; female, Balb/c, mouse, in vivo, iv, 4 umol/kg, 4 μmol/kg i.v., read-out: Vz): 3.4 L/kg | C0 (Pharmacokinetics in mice; female, Balb/c, mouse, in vivo, iv, 4 μmol/kg i.v.): 2.19 µM | AUC(0-inf) (Pharmacokinetics in mice; [9]): 24.2 µM·h | AUC(0-t) (Pharmacokinetics in mice; [9]): 23.2 µM·h | Cmax (Pharmacokinetics in mice; [9]): 2.12 µM | MRT inf (Pharmacokinetics in mice; [9]): 7.1 h | bioavailability (Pharmacokinetics in mice; female, Balb/c, mouse, in vivo, po, 10 umol/kg, 10 μmol/kg p.o., read-out: F (% bioavailability)): 89.7% | half-life (Pharmacokinetics in mice; [9]): 318 min | Tmax (Pharmacokinetics in mice; mouse, in vivo, po, 10 umol/kg, 10 μmol/kg p.o.): 30 min
SMILES: Cc1nnsc1C(=O)N[C@H]1CCN2c3ccc(C#N)cc3[C@@H](C)c3ccccc3[C@@H]2C1 [Org 214007-0]
Max. eff., IL-6 repression (THP-1 cells [1]): 78 (±9) % | Max. eff., IL-8 repression (THP-1 cells [1]): 74 (±10) % | Max. eff., MCP-1 repression (THP-1 cells [1]): 44 (±8) % | Max. eff., DUSP1 induction (THP-1 cells [2]): 41 (±6) % | Max. eff., FKBP51 induction (THP-1 cells [2]): 42 (±8) % | Max. eff., GILZ induction (THP-1 cells [2]): 13 (±5) % | Max. eff., LPS-induced TNFα repression [3]: 68 (±8.7) % | Max. eff., activation of PAI-1 [4]: 55% | disease symptoms ([5]; 1.5 mg/kg/day oral): total suppression | bone damage by X-ray on knees and paws ([5]; 0.5 and 1.5 mg/kg/day, end of study): significant reduction | potency relative to prednisolone ([5]; CIA, oral once daily): about 3 fold | disease score (arthritis score) [5]: dose-dependent reduction | histopathology of knee joints: inflammatory infiltrates, cartilage destruction, bone apposition ([5]; two highest doses (0.5 and 1.5 mg/kg/day)): significant reduction

SMILES: C[C@]12C=CC(=O)C=C1CC[C@@H]1[C@@H]2[C@@H](O)C[C@@]2(C)[C@H]1CC[C@]2(O)C(=O)CO [prednisolone, reference compound]
pIC50 (THP-1 cells [1]; read-out: IC50, IL-6 release): 7.47 | pIC50 (THP-1 cells [1]; read-out: IC50, IL-8 release): 7.43 | pIC50 (THP-1 cells [1]; read-out: IC50, MCP-1 release): 7.16 | Max. eff., IL-6 repression (THP-1 cells [1]): 100% | Max. eff., IL-8 repression (THP-1 cells [1]): 100% | Max. eff., MCP-1 repression (THP-1 cells [1]): 100% | pEC50 (THP-1 cells [2]; [6]): 7.17 | pEC50 (THP-1 cells [2]; [7]): 7.18 | pEC50 (THP-1 cells [2]; read-out: EC50, GILZ induction): 7.22 | Max. eff., DUSP1 induction (THP-1 cells [2]): 100% | Max. eff., FKBP51 induction (THP-1 cells [2]): 100% | Max. eff., GILZ induction (THP-1 cells [2]): 100% | pIC50 [3]: 7.57 | Max. eff., LPS-induced TNFα repression [3]: 100% | Max. eff., activation of PAI-1 [4]: 100% | Cl (Pharmacokinetics in mice; 20 μmol/kg p.o.): 1.8 L/h/kg | Vz (Pharmacokinetics in mice; 20 μmol/kg p.o.): 1.2 L/kg | AUC(0-inf) (Pharmacokinetics in mice; [10]): 7.1 µM·h | AUC(0-t) (Pharmacokinetics in mice; [10]): 7.1 µM·h | MRT inf (Pharmacokinetics in mice; [10]): 0.4 h | clearance (Pharmacokinetics in mice; [10]): 23.3 mL/min/kg | half-life (Pharmacokinetics in mice; [10]): 15.6 min | Vd (Pharmacokinetics in mice; female, Balb/c, mouse, in vivo, iv, 10 umol/kg, 10 μmol/kg i.v., read-out: Vss): 0.5 L/kg | C0 (Pharmacokinetics in mice; female, Balb/c, mouse, in vivo, iv, 10 μmol/kg i.v.): 18 µM | AUC(0-inf) (Pharmacokinetics in mice; [11]): 11 µM·h | AUC(0-t) (Pharmacokinetics in mice; [11]): 11 µM·h | Cmax (Pharmacokinetics in mice; [11]): 11.5 µM | MRT inf (Pharmacokinetics in mice; [11]): 0.8 h | half-life (Pharmacokinetics in mice; [11]): 24 min | Tmax (Pharmacokinetics in mice; mouse, in vivo, po, 20 umol/kg, 20 μmol/kg p.o.): 18 min | disease score (arthritis score) [5]: dose-dependent reduction

From paper PMC3495945, “Org 214007-0: A Novel Non-Steroidal Selective Glucocorticoid Receptor Modulator with Full Anti-Inflammatory Properties and Improved Therapeutic Index” (PLoS ONE, 2012)
